# Reference: patent publication US20260256792A1, “TREATMENT OF CHRONIC SPONTANEOUS URTICARIA BY ADMINISTERING (R)-2-[3-[4-AMINO-3-(2-FLUORO-4-PHENOXY-PHENYL)PYRAZOLO[3,4-D]PYRIMIDIN-1-YL]PIPERIDINE-1-CARBONYL]-4-METHYL-4-[4-(OXETAN-3-YL)PIPERAZIN-1-YL]PENT-2-ENENITRILE” (priority 2023, published 2026)
# System: angioedema in CSU patients
# Assay: Phase 2 CSU study: angioedema activity score over 7 days (AAS7)
# Type: in vivo, human
# Set-up: AAS7, Median / AAS7 Change from baseline, Median: scale not given here
# Text: The study comprises a 12 week, randomized, double-blind, placebo-controlled, multi-center, dose-ranging efficacy and safety phase, followed by a 40 week open label extension (OLE) phase (see FIG. 1). The study consists of three phases and an optional OLE phase. […] The weekly angioedema activity score (AAS7) was proposed as a tertiary endpoint. […] Patients were to complete the AAS using the e-diary. The e-diary was to be used once daily on the same time of each day recording of participant's answers to the angioedema activity score over 7 days (AAS7) questionnaire.
# [1] = Omalizumab-Naïve Population, 400 mg TID, Week 7
# [2] = Omalizumab-Naïve Population, 400 mg TID, Week 8
# [3] = Omalizumab-Naïve Population, 400 mg TID, Week 9
# [4] = Omalizumab-Naïve Population, 400 mg TID, Week 10
# [5] = Omalizumab-Naïve Population, 400 mg TID, Week 11
# [6] = Omalizumab-Naïve Population, 400 mg TID, Week 12
# [7] = Patients with Prior Omalizumab Use, 400 mg BID, Week 1
# [8] = Patients with Prior Omalizumab Use, 400 mg BID, Week 2
# [9] = Patients with Prior Omalizumab Use, 400 mg BID, Week 3
# [10] = Patients with Prior Omalizumab Use, 400 mg BID, Week 4
# [11] = Patients with Prior Omalizumab Use, 400 mg BID, Week 5
# [12] = Patients with Prior Omalizumab Use, 400 mg BID, Week 6
# [13] = Patients with Prior Omalizumab Use, 400 mg BID, Week 7
# [14] = Patients with Prior Omalizumab Use, 400 mg BID, Week 8
# [15] = Patients with Prior Omalizumab Use, 400 mg QPM, Week 1
# [16] = Patients with Prior Omalizumab Use, 400 mg QPM, Week 2
# [17] = Patients with Prior Omalizumab Use, 400 mg QPM, Week 3
# [18] = Patients with Prior Omalizumab Use, 400 mg QPM, Week 4
# [19] = Patients with Prior Omalizumab Use, 400 mg QPM, Week 5
# [20] = Patients with Prior Omalizumab Use, 400 mg QPM, Week 6
# [21] = Patients with Prior Omalizumab Use, 400 mg QPM, Week 7
# [22] = Patients with Prior Omalizumab Use, 400 mg QPM, Week 8
structure (smiles),measurement,setting,value
"CC(C)(C=C(C#N)C(=O)N1CCC[C@@H](n2nc(-c3ccc(Oc4ccccc4)cc3F)c3c(N)ncnc32)C1)N1CCN(C2COC2)CC1 [rilzabrutinib, (R)-2-[3-[4-amino-3-(2-fluoro-4-phenoxy-phenyl)pyrazolo[3,4-d]pyrimidin-1-yl]piperidine-1-carbonyl]-4-methyl-4-[4-(oxetan-3-yl)piperazin-1-yl]pent-2-enenitrile]","AAS7 Change from baseline, Median",[1],−27.00
same,"AAS7 Percent change from baseline, Mean (SD)",[1],−66.41 (55.40) %
same,"AAS7 Percent change from baseline, Median",[1],−93.41%
same,"AAS7 Change from baseline, Mean (SD)",[2],−33.38 (24.94)
same,"AAS7 Change from baseline, Median",[2],−25.00
same,"AAS7 Percent change from baseline, Mean (SD)",[2],−69.90 (38.13) %
same,"AAS7 Percent change from baseline, Median",[2],−85.88%
same,"AAS7, Median",[3],1.40
same,"AAS7 Change from baseline, Mean (SD)",[3],−38.54 (26.30)
same,"AAS7 Change from baseline, Median",[3],−39.00
same,"AAS7 Percent change from baseline, Mean (SD)",[3],−78.96 (34.18) %
same,"AAS7 Percent change from baseline, Median",[3],−98.13%
same,"AAS7, Median",[4],2.00
same,"AAS7 Change from baseline, Mean (SD)",[4],−39.26 (24.84)
same,"AAS7 Change from baseline, Median",[4],−40.00
same,"AAS7 Percent change from baseline, Mean (SD)",[4],−82.44 (32.63) %
same,"AAS7 Percent change from baseline, Median",[4],−96.61%
same,"AAS7, Median",[5],3.00
same,"AAS7 Change from baseline, Mean (SD)",[5],−36.30 (27.49)
same,"AAS7 Change from baseline, Median",[5],−31.00
same,"AAS7 Percent change from baseline, Mean (SD)",[5],−76.08 (33.07) %
same,"AAS7 Percent change from baseline, Median",[5],−96.00%
same,"AAS7, Median",[6],0.00
same,"AAS7 Change from baseline, Mean (SD)",[6],−37.55 (25.86)
same,"AAS7 Change from baseline, Median",[6],−31.00
same,"AAS7 Percent change from baseline, Mean (SD)",[6],−82.72 (30.20) %
same,"AAS7 Percent change from baseline, Median",[6],−100.00%
same,"AAS7, Mean (SD)",[7],0.00 (0.00)
same,"AAS7, Median",[7],0.00
same,"AAS7 Change from baseline, Mean (SD)",[7],−39.50 (3.54)
same,"AAS7 Change from baseline, Median",[7],−39.50
same,"AAS7 Percent change from baseline, Mean (SD)",[7],−100.00 (0.00) %
same,"AAS7 Percent change from baseline, Median",[7],−100.00%
same,"AAS7, Mean (SD)",[8],0.00 (0.00)
same,"AAS7, Median",[8],0.00
same,"AAS7 Change from baseline, Mean (SD)",[8],−39.50 (3.54)
same,"AAS7 Change from baseline, Median",[8],−39.50
same,"AAS7 Percent change from baseline, Mean (SD)",[8],−100.00 (0.00) %
same,"AAS7 Percent change from baseline, Median",[8],−100.00%
same,"AAS7, Mean (SD)",[9],0.00 (0.00)
same,"AAS7, Median",[9],0.00
same,"AAS7 Change from baseline, Mean (SD)",[9],−39.50 (3.54)
same,"AAS7 Change from baseline, Median",[9],−39.50
same,"AAS7 Percent change from baseline, Mean (SD)",[9],−100.00 (0.00) %
same,"AAS7 Percent change from baseline, Median",[9],−100.00%
same,"AAS7, Mean (SD)",[10],0.00 (0.00)
same,"AAS7, Median",[10],0.00
same,"AAS7 Change from baseline, Mean (SD)",[10],−39.50 (3.54)
same,"AAS7 Change from baseline, Median",[10],−39.50
same,"AAS7 Percent change from baseline, Mean (SD)",[10],−100.00 (0.00) %
same,"AAS7 Percent change from baseline, Median",[10],−100.00%
same,"AAS7, Mean (SD)",[11],0.00 (0.00)
same,"AAS7, Median",[11],0.00
same,"AAS7 Change from baseline, Mean (SD)",[11],−39.50 (3.54)
same,"AAS7 Change from baseline, Median",[11],−39.50
same,"AAS7 Percent change from baseline, Mean (SD)",[11],−100.00 (0.00) %
same,"AAS7 Percent change from baseline, Median",[11],−100.00%
same,"AAS7, Mean (SD)",[12],0.00 (0.00)
same,"AAS7, Median",[12],0.00
same,"AAS7 Change from baseline, Mean (SD)",[12],−39.50 (3.54)
same,"AAS7 Change from baseline, Median",[12],−39.50
same,"AAS7 Percent change from baseline, Mean (SD)",[12],−100.00 (0.00) %
same,"AAS7 Percent change from baseline, Median",[12],−100.00%
same,"AAS7, Mean (SD)",[13],1.00 (1.41)
same,"AAS7, Median",[13],1.00
same,"AAS7 Change from baseline, Mean (SD)",[13],−38.50 (2.12)
same,"AAS7 Change from baseline, Median",[13],−38.50
same,"AAS7 Percent change from baseline, Mean (SD)",[13],−97.62 (3.37) %
same,"AAS7 Percent change from baseline, Median",[13],−97.62%
same,"AAS7, Mean (SD)",[14],0.00 (0.00)
same,"AAS7, Median",[14],0.00
same,"AAS7 Change from baseline, Mean (SD)",[14],−39.50 (3.54)
same,"AAS7 Change from baseline, Median",[14],−39.50
same,"AAS7, Mean (SD)",[15],27.00 (NC)
same,"AAS7, Median",[15],27.00
same,"AAS7 Change from baseline, Mean (SD)",[15],41.00 (NC)
same,"AAS7 Change from baseline, Median",[15],−41.00
same,"AAS7 Percent change from baseline, Mean (SD)",[15],−60.29 (NC) %
same,"AAS7 Percent change from baseline, Median",[15],−60.29%
same,"AAS7, Mean (SD)",[16],25.00 (NC)
same,"AAS7, Median",[16],25.00
same,"AAS7 Change from baseline, Mean (SD)",[16],−43.00 (NC)
same,"AAS7 Change from baseline, Median",[16],−43.00
same,"AAS7 Percent change from baseline, Mean (SD)",[16],−63.24 (NC) %
same,"AAS7 Percent change from baseline, Median",[16],−63.24%
same,"AAS7, Mean (SD)",[17],29.00 (NC)
same,"AAS7, Median",[17],29.00
same,"AAS7 Change from baseline, Mean (SD)",[17],−39.00 (NC)
same,"AAS7 Change from baseline, Median",[17],−39.00
same,"AAS7 Percent change from baseline, Mean (SD)",[17],−57.35 (NC) %
same,"AAS7 Percent change from baseline, Median",[17],−57.35%
same,"AAS7, Mean (SD)",[18],26.00 (NC)
same,"AAS7, Median",[18],26.00
same,"AAS7 Change from baseline, Mean (SD)",[18],−42.00 (NC)
same,"AAS7 Change from baseline, Median",[18],−42.00
same,"AAS7 Percent change from baseline, Mean (SD)",[18],−61.76 (NC) %
same,"AAS7 Percent change from baseline, Median",[18],−61.76%
same,"AAS7, Mean (SD)",[19],37.00 (NC)
same,"AAS7, Median",[19],37.00
same,"AAS7 Change from baseline, Mean (SD)",[19],−31.00 (NC)
same,"AAS7 Change from baseline, Median",[19],−31.00
same,"AAS7 Percent change from baseline, Mean (SD)",[19],−45.59 (NC) %
same,"AAS7 Percent change from baseline, Median",[19],−45.59%
same,"AAS7, Mean (SD)",[20],21.00 (NC)
same,"AAS7, Median",[20],21.00
same,"AAS7 Change from baseline, Mean (SD)",[20],−47.00 (NC)
same,"AAS7 Change from baseline, Median",[20],−47.00
same,"AAS7 Percent change from baseline, Mean (SD)",[20],−69.12 (NC) %
same,"AAS7 Percent change from baseline, Median",[20],−69.12%
same,"AAS7, Mean (SD)",[21],12.00 (NC)
same,"AAS7, Median",[21],12.00
same,"AAS7 Change from baseline, Mean (SD)",[21],−56.00 (NC)
same,"AAS7 Change from baseline, Median",[21],−56.00
same,"AAS7 Percent change from baseline, Mean (SD)",[21],−82.35 (NC) %
same,"AAS7 Percent change from baseline, Median",[21],−82.35%
same,"AAS7, Mean (SD)",[22],18.00 (NC)
same,"AAS7, Median",[22],18.00
same,"AAS7 Change from baseline, Mean (SD)",[22],−50.00 (NC)
